Test results published in US7947287B2, “Peptides for the treatment of cancer associated with the human papilloma virus (HPV) and other epithelial tumors” (Centro de Ingenieria Genetica y Biotecnolgia, priority 2001, dated 2011).
Bridges are numbered along the chain shown (N, C = ends). Where no end group is shown, it is not given here.

Test system: H-125 cells (Non-Small Lung Cell Cancer)
Experiment: antitumor effect in human tumors implanted in nude mice
Type: in vivo, BalbC nude mice
Details: H-125 subcutaneous, 1 to 10 mg/Kg every other day for one month, FIG. 6
Method: For these experiments, 6-8 week old female BalbC nude mice were used. The tumor implantation was performed using H-125 cells (Non-Small Lung Cell Cancer) that were resuspended in saline solution (PBS) at 1000 000 cells/ml. Cell suspension was inoculated subcutaneously in the abdomen. Peptide administration (sequence 1 on the list) was made together with the cells and continued every other day until completing one month of treatment. In this assay, doses ranging between 1 and 10 mg/Kg of weight were evaluated. To examine the antitumor effect, parameters like tumor mass and survival of the animals were evaluated.

With “CSVRQGPVQKC (disulfide 1-11 (inferred)) [sequence 1 on the list]” the “inhibition of tumor progression” value was “effective in terms of the inhibition of tumor progression”.
